In publication PMC8055690, “Flavonoids increase melanin production and reduce proliferation, migration and invasion of melanoma cells by blocking endolysosomal/melanosomal TPC2” (Scientific Reports, 2021):

Legend:
[1] = biological target: T1, two-pore channel 2 (hTPC2) (Homo sapiens, UniProt Q8NHX9); experiment: endolysosomal patch-clamp, block of PI([…])P2-evoked current; type: biochemical
T1 construct: gene TPCN2; hTPC2-YFP stably expressed in HEK293 cells

[2] = biological target: T1, two-pore channel 2 (hTPC2); experiment: endolysosomal patch-clamp, single concentration […]; type: cell-based

T1 sequence (Q8NHX9 whole entry): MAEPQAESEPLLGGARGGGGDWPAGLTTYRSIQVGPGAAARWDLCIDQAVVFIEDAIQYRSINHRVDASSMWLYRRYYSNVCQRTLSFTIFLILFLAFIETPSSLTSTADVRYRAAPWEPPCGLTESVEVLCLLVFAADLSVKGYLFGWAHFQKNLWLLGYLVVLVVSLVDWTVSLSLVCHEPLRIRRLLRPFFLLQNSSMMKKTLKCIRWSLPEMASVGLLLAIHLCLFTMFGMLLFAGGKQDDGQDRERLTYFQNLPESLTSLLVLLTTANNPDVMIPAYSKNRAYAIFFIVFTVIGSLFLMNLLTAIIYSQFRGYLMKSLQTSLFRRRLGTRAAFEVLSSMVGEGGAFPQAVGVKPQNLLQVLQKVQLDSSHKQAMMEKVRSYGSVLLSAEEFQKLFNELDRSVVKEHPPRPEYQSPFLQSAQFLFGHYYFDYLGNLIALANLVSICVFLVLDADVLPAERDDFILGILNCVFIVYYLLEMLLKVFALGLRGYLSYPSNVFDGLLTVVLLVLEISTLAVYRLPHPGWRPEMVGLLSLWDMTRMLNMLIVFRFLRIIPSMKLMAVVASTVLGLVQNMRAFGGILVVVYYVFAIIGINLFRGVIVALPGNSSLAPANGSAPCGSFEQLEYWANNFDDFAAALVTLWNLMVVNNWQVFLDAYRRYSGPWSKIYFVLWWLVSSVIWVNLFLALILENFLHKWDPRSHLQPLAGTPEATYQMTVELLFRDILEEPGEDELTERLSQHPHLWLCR

Row | IC50 [1] | Compound | endolysosomal patch-clamp, single concentration 10 μM [2]
1 | 9.5 ± 2.8 µM | COc1ccc([C@@H]2COc3c(ccc(O)c3OC)C2)c(OC)c1O [UM-9, duartin] | 
2 | 2.6 ± 0.3 µM | COc1ccc(-c2coc3cc(O)cc(O)c3c2=O)cc1O [MT-8, pratensein] | 
3 |  | O=C1C[C@@H](c2ccccc2)Oc2cc(O)cc(O)c21 [TR-12] | TR-9 and TR-12 which showed variable effects on melanin generation also proved to be less efficacious inhibitors of hTPC2
4 |  | COc1ccc(-c2coc3cc(O)cc(O)c3c2=O)cc1 [TR-9] | TR-9 and TR-12 which showed variable effects on melanin generation also proved to be less efficacious inhibitors of hTPC2

Row | Compound | IC50 [1] | endolysosomal patch-clamp, single concentration 10 μM [2]
5 | O=C1C[C@@H](c2ccc(O)cc2)Oc2cc(O)cc(O)c21 [MT-16, naringenin] | 74 ± 9 µM | 
